Results published in PubChem BioAssay AID2060509 (Molecular Pharmacology Branch, DTP, NCI, 2025).

Tested on: 485176-168-R4-J1-PDC spheroids with HUVEC/MSC, viability
Experiment: Anticancer human tumor 485176-168-R4-J1-PDC patient-derived pancreatic adenocarcinoma cell line growth inhibition [GQUAD]
Conditions: for IC50: curve of first compound; for viability, T/C: stronger effect = lower value
Method in brief: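 Viability of tumor cells grown as complex spheroids with endothelial and stromal cells, exposed to drug combinations. Top concentration at or near clinical Cmax (else 10 microM), diluted in half-log increments.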
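Further: spheroids exposed to compounds for seven days before readout.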
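Wherever viability, T/C is given: percent viability relative to DMSO vehicle control wells as 100%.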

CC[C@@]1(O)C(=O)OCc2c1cc1n(c2=O)Cc2cc3c(CN(C)C)c(O)ccc3nc2-1 + Cc1cnc(CNC(=O)c2c(=O)c3ccc(N4CCCN(C)CC4)nc3n3c2sc2ccccc23)cn1
IC50 (second compound 0.0316 µM): 113 nM
IC50 (second compound 0.1 µM): 59.2 nM
IC50 (second compound 0.316 µM): 43.4 nM
IC50 (second compound 1 µM): 10.9 nM
IC50 (second compound 3.16 µM): 1.18 nM
IC50 (second compound 10 µM): < 0.999 nM
viability, T/C (second compound 0.0316 µM, first compound 0.000999 µM): 94.4%
viability, T/C (second compound 0.0316 µM, first compound 0.00316 µM): 84.9%
viability, T/C (second compound 0.0316 µM, first compound 0.00999 µM): 87.5%
viability, T/C (second compound 0.0316 µM, first compound 0.0316 µM): 70.3%
viability, T/C (second compound 0.0316 µM, first compound 0.0999 µM): 52.8%
viability, T/C (second compound 0.0316 µM, first compound 0.316 µM): 29.3%
viability, T/C (second compound 0.1 µM, first compound 0.000999 µM): 75.8%
viability, T/C (second compound 0.1 µM, first compound 0.00316 µM): 72.1%
viability, T/C (second compound 0.1 µM, first compound 0.00999 µM): 88.9%
viability, T/C (second compound 0.1 µM, first compound 0.0316 µM): 60.9%
viability, T/C (second compound 0.1 µM, first compound 0.0999 µM): 44.8%
viability, T/C (second compound 0.1 µM, first compound 0.316 µM): 37.1%
viability, T/C (second compound 0.316 µM, first compound 0.000999 µM): 69.3%
viability, T/C (second compound 0.316 µM, first compound 0.00316 µM): 62.8%
viability, T/C (second compound 0.316 µM, first compound 0.00999 µM): 64%
viability, T/C (second compound 0.316 µM, first compound 0.0316 µM): 52.4%
viability, T/C (second compound 0.316 µM, first compound 0.0999 µM): 41.8%
viability, T/C (second compound 0.316 µM, first compound 0.316 µM): 32.2%
viability, T/C (second compound 1 µM, first compound 0.000999 µM): 47.8%
viability, T/C (second compound 1 µM, first compound 0.00316 µM): 55.1%
viability, T/C (second compound 1 µM, first compound 0.00999 µM): 50.9%
viability, T/C (second compound 1 µM, first compound 0.0316 µM): 42.4%
viability, T/C (second compound 1 µM, first compound 0.0999 µM): 35.9%
viability, T/C (second compound 1 µM, first compound 0.316 µM): 33.5%
viability, T/C (second compound 3.16 µM, first compound 0.000999 µM): 49.5%
viability, T/C (second compound 3.16 µM, first compound 0.00316 µM): 49.4%
viability, T/C (second compound 3.16 µM, first compound 0.00999 µM): 39.8%
viability, T/C (second compound 3.16 µM, first compound 0.0316 µM): 41.2%
viability, T/C (second compound 3.16 µM, first compound 0.0999 µM): 34.4%
viability, T/C (second compound 3.16 µM, first compound 0.316 µM): 30.8%
viability, T/C (second compound 10 µM, first compound 0.000999 µM): 42.7%
viability, T/C (second compound 10 µM, first compound 0.00316 µM): 44.5%
viability, T/C (second compound 10 µM, first compound 0.00999 µM): 41.3%
viability, T/C (second compound 10 µM, first compound 0.0316 µM): 36.4%
viability, T/C (second compound 10 µM, first compound 0.0999 µM): 36.3%
viability, T/C (second compound 10 µM, first compound 0.316 µM): 27.5%
